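Method: 48-hour compound exposure of cells in 96-well plates, five concentrations, linear interpolation of endpoints. At the GI50, growth is halved.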 Activity calls are given as the source filed them. No stated cut-off is given here; in the data, active = GI50 up to about 1.1 µM and inactive = higher.
Columns and labels:
Assay in all cases: NCI anticancer screen, dose series, 48 h
786-0 = tested on: 786-0
CCRF-CEM = tested on: CCRF-CEM
DU-145 = tested on: DU-145
HCC 2998 = tested on: HCC 2998
HOP-92 = tested on: HOP-92
KM12 = tested on: KM12
M14 = tested on: M14
MDA-MB-435 = tested on: MDA-MB-435
MOLT-4 = tested on: MOLT-4
NCI-H226 = tested on: NCI-H226
OVCAR-3 = tested on: OVCAR-3
SF-268 = tested on: SF-268
SF-295 = tested on: SF-295
SK-MEL-28 = tested on: SK-MEL-28
SK-MEL-2 = tested on: SK-MEL-2
SNB-19 = tested on: SNB-19
SNB-75 = tested on: SNB-75
T47D = tested on: T47D
UO-31 = tested on: UO-31
TK-10 = tested on: TK-10

Measured: GI50

C/C(=C\C(=O)O)C(=O)N(C)c1ccccc1I
inactive: 786-0 > 100 µM | CCRF-CEM > 100 µM | DU-145 > 100 µM | HCC 2998 > 100 µM | HOP-92 > 100 µM | KM12 > 100 µM | M14 > 100 µM | MDA-MB-435 > 100 µM | MOLT-4 > 100 µM | NCI-H226 > 100 µM | OVCAR-3 > 100 µM | SF-268 > 100 µM | SF-295 > 100 µM | SK-MEL-28 > 100 µM | SK-MEL-2 > 100 µM | SNB-19 > 100 µM | SNB-75 > 100 µM | T47D > 100 µM | UO-31 > 100 µM

COC1(OC)CCc2c(sc3ncnc(Nc4cccc(Br)c4)c23)C1
inactive: 786-0 25.1 µM | DU-145 10.9 µM | HCC 2998 > 100 µM | HOP-92 30.5 µM | KM12 33.4 µM | M14 44.4 µM | MDA-MB-435 62.2 µM | MOLT-4 14.2 µM | NCI-H226 43.8 µM | OVCAR-3 > 100 µM | SF-268 69.5 µM | SF-295 72.8 µM | SK-MEL-2 > 100 µM | SNB-19 35.5 µM | SNB-75 26.5 µM | T47D 23.1 µM | TK-10 10.6 µM | UO-31 3.22 µM

CC1C=C(NCC2(CO)CCC2)N=C(N)N1 (configuration not stated)
inactive: 786-0 > 100 µM | CCRF-CEM > 100 µM | DU-145 > 100 µM | HCC 2998 > 100 µM | HOP-92 > 100 µM | KM12 > 100 µM | M14 > 100 µM | MDA-MB-435 > 100 µM | MOLT-4 > 100 µM | NCI-H226 > 100 µM | OVCAR-3 > 100 µM | SF-268 > 100 µM | SF-295 > 100 µM | SK-MEL-28 > 100 µM | SK-MEL-2 > 100 µM | SNB-19 > 100 µM | SNB-75 > 100 µM | T47D > 100 µM | UO-31 > 100 µM

O=C(c1ccccc1)c1ccc2c(c1)nc1n2C(c2c(Cl)cccc2Cl)SC1 (configuration not stated)
inactive: 786-0 72.6 µM | DU-145 > 100 µM | HCC 2998 > 100 µM | HOP-92 69 µM | KM12 19.9 µM | M14 48.2 µM | MDA-MB-435 59.2 µM | MOLT-4 31.4 µM | NCI-H226 > 100 µM | OVCAR-3 38.8 µM | SF-268 67.5 µM | SF-295 27.6 µM | SK-MEL-28 > 100 µM | SK-MEL-2 > 100 µM | SNB-19 77.1 µM | SNB-75 28.4 µM | T47D 14.7 µM | TK-10 > 100 µM | UO-31 23.9 µM

Cc1ccc([N+](=O)[O-])cc1S(=O)(=O)Nc1ccc(C2=NNC(c3ccccc3)C2)cc1 (configuration not stated)
inactive: 786-0 20.8 µM | DU-145 27.9 µM | HCC 2998 18.7 µM | HOP-92 33.3 µM | KM12 13.4 µM | M14 21.4 µM | MDA-MB-435 17.1 µM | MOLT-4 6.64 µM | NCI-H226 32.9 µM | OVCAR-3 4.74 µM | SF-268 16.8 µM | SF-295 3.02 µM | SK-MEL-28 25.2 µM | SK-MEL-2 18.5 µM | SNB-19 30.9 µM | SNB-75 24.8 µM | T47D 4.23 µM | TK-10 19.8 µM | UO-31 24.9 µM

CC1=NN(c2cccc(Cl)c2)C2(SCC(=O)N2c2nc3ccccc3s2)/C1=C\c1ccccc1 (configuration not stated)
inactive: 786-0 16.6 µM | CCRF-CEM 28.2 µM | DU-145 22 µM | HCC 2998 14.2 µM | HOP-92 7.21 µM | KM12 16.1 µM | M14 23.7 µM | MDA-MB-435 18.3 µM | MOLT-4 21.2 µM | NCI-H226 19 µM | OVCAR-3 20.8 µM | SF-268 21.4 µM | SF-295 21.6 µM | SK-MEL-28 27.5 µM | SK-MEL-2 22.5 µM | SNB-75 86.5 µM | T47D 27.1 µM | TK-10 40.6 µM | UO-31 20.1 µM

O=S(=O)(N/C(=N\O)Nc1ccc(Cl)cc1)c1ccc(S(=O)(=O)c2ccccc2)s1
inactive: 786-0 29.7 µM | CCRF-CEM 19.1 µM | DU-145 19.5 µM | HCC 2998 14.3 µM | HOP-92 6.92 µM | KM12 20.6 µM | M14 18.5 µM | MDA-MB-435 17 µM | MOLT-4 12.9 µM | NCI-H226 14.6 µM | OVCAR-3 18.4 µM | SF-268 23.1 µM | SF-295 26.5 µM | SK-MEL-28 17.7 µM | SK-MEL-2 17.9 µM | SNB-19 33.7 µM | T47D 15.8 µM | TK-10 23.8 µM | UO-31 19.4 µM

From ChEMBL document CHEMBL1201862, “PubChem BioAssay data set” (2004)
